Where two headings read alike, the source gives them in different places.
System: multiple drug resistant M. tuberculosis strain vertulo
Settings: for Anti-tuberculosis activity to multi-drug resistant strain (vertulo) Fold (compared to D4): relative to D4

SMILES	Anti-tuberculosis activity to multi-drug resistant strain (vertulo) Fold (compared to D4)	Anti-tuberculosis activity to multi-drug resistant strain (vertulo) MIC	Anti-tuberculosis activity to multi-drug resistant strain (vertulo) MIC (multiple drug resistant strain vertulo)
CC[C@@H](C)[C@@H](NC(=O)[C@@H](CC(C)C)NC(=O)[C@@H](CCCCN)NC(=O)[C@@H](CC(C)C)NC(=O)[C@@H](CC(C)C)NC(=O)[C@H](NC(=O)[C@@H](Cc1c[nH]cn1)NC(=O)[C@@H](CC(C)C)NC(=O)[C@@H](CCCCN)NC(=O)[C@H](NC(=O)[C@@H](CCCCN)NC(=O)[C@@H](CCCCN)NC(=O)[C@@H](CC(C)C)NC(=O)[C@@H](CO)NC(=O)[C@@H](CCCCN)NC(=O)[C@@H](Cc1ccccc1)NC(=O)[C@H](NC(=O)[C@@H](CCCCN)NC(=O)[C@@H](CC(C)C)NC(=O)[C@@H](Cc1ccccc1)NC(=O)[C@@H](CO)NC(=O)[C@@H](CCCCN)NC(=O)[C@@H](Cc1c[nH]c2ccccc12)NC(=O)[C@@H](CCCCN)NC(C)=O)[C@H](C)O)[C@H](C)O)[C@H](C)O)C(=O)N[C@H](CO)C(=O)N[C@H](CO)C(N)=O [D5]	>10.3 fold		
CC[C@@H](C)[C@@H](NC(=O)[C@@H](C)NC(=O)[C@@H](CCCCN)NC(=O)[C@@H](CC(C)C)NC(=O)[C@@H](C)NC(=O)[C@H](NC(=O)[C@@H](Cc1c[nH]cn1)NC(=O)[C@@H](CC(C)C)NC(=O)[C@H](NC(=O)[C@H](NC(=O)[C@@H](CCCCN)NC(=O)[C@@H](CCCCN)NC(=O)[C@@H](C)NC(=O)[C@@H](CO)NC(=O)[C@@H](CCCCN)NC(=O)[C@@H](Cc1ccccc1)NC(=O)[C@H](NC(=O)[C@@H](CCCCN)NC(=O)[C@@H](CC(C)C)NC(=O)[C@@H](Cc1ccccc1)NC(=O)[C@@H](CO)NC(=O)[C@@H](CCCCN)NC(=O)[C@@H](Cc1c[nH]c2ccccc12)NC(=O)[C@@H](CCCCN)NC(C)=O)[C@H](C)O)[C@H](C)O)C(C)C)[C@H](C)O)C(=O)N[C@H](CO)C(=O)N[C@H](CO)C(N)=O [D1]	>8.4 fold	57 µg/mL	19.1 µM

Source: patent US20100099614A1, “Antimicrobial Peptides and Methods of Use” (priority 2008, published 2010)
